Data as given in US12723023B2, “Ionizable cationic lipids for RNA delivery” (Arcturus Therapeutics, Inc., priority 2021, dated 2026).

Tests used:
Mouse plasma stability = assay type: in vitro ADME, CD-1 mouse; conditions: 1 μM lipid
Description: Lipid stock solution was prepared by dissolution of the lipid in isopropanol at the concentration of 5 mg/mL. A requisite volume of the lipid-isopropanol solution was then diluted to 100 μM concentration at a total volume of 1.0 mL with in 50:50 (v/v) ethanol/water. Ten microliters of this 100 μM solution was spiked into 1.0 mL of mouse plasma (BioIVT, Cat. No.: MSE00PLNHUNN, CD-1 mouse, anticoagulant: sodium heparin, not filtered) that was pre-warmed to 37° C. and was stirred at 50 rpm with a magnetic stir bar. The starting concentration of lipids in plasma was thus 1 μM. At time points 0, 15, 30, 45, 60 and 120 min, 0.1 mL of the plasma was withdrawn from the reaction mixture and the protein was precipitated by adding 0.9 mL of ice-cold 4:1 (v/v) acetonitrile/methanol with 1 μg/mL of a selected internal standard lipid added. After filtration through a 0.45 micron 96-well filtering plate, the filtrates were analyzed by LC-MS (Thermo Fisher's Vanquish UHPLC-LTQ XL linear ion trap Mass Spectrometer); Waters XBridge BEH Shield RP18 2.5 micron (2.1×100 mm) column with its matching guard column. Mobile phase A was 0.1% formic acid in water, and mobile phase B was 0.1% formic acid in 1:1 (v/v) acetonitrile/methanol. Flow rate was 0.5 ml/min. Elution gradient was: Time 0-1 min: 10% B; 1-6 min: 10%-95% B; 6-8.5 min: 95% B; 8.5-9 min: 95%-10% B; 9-10 min: 10% B. Mass spectrometry was in positive scanning mode from 600-1100 m/z. The peak of the molecular ion of the lipids was integrated in the extracted ion chromatography (XIC) using Xcalibur software (Thermo Fisher). The relative peak area compared to T=0, after normalization by the peak area of the internal standard, was used as the percentage of the lipid remaining at each time point. T1/2 values were calculated using the first-order decay model.

[1] = In vivo biodegradability assay (lipid concentration in mouse liver by LC-MS); parameters: species or system mice; conditions: BLOQ: below level of quantification; for In vivo degradability (ng tissue) at 48 h 0.1 mpk: Table 1, 0.1 mpk; for In vivo degradability (ng/tissue) at 48 h 0.1 mpk: Table 2, 0.1 mpk
Description: In vivo biodegradability assay was performed to assess the biodegradability of lipids in the LNP. Briefly, mice were injected with either 0.1 or 0.03 mg/Kg dose and after 24 or 48 hours mice livers were collected. To measure the concentration of lipids in the mouse liver, liver samples were homogenized in appropriate buffer in 1-10 dilution and mixed with the same amount of stabilized plasma. The samples were then mixed with organic solvents spiked with internal standard to precipitate proteins. After centrifugation, supernatant was diluted further with organic solvent before sample analysis by LC-MS. In LC-MS analysis, positive electrospray ionization was used, and multiple reaction monitoring (MRM) parameters were set up to specifically target the lipid analyte and internal standard. Calibration standards were prepared in stabilized plasma and mixed with same amount of homogenization buffer before protein precipitation. Quality control samples with known amounts of lipid was prepared in blank liver homogenate to monitor the precision and accuracy of the assay.

Plasma half life % remaining after 2 h (Mouse plasma stability; Table 1, 37° C.) [%]	Plasma half life % remaining after 2 h (Mouse plasma stability; Table 2, 37° C.) [%]	In vivo degradability (ng/tissue) at 48 h 0.03 mpk ([1]; Table 1, 0.03 mpk)	In vivo degradability (ng tissue) at 48 h 0.1 mpk [1]	In vivo degradability (ng/tissue) at 48 h 0.03 mpk ([1]; Table 2, 0.03 mpk)	In vivo degradability (ng/tissue) at 48 h 0.1 mpk [1]	SMILES
14	14	BLOQ	BLOQ	BLOQ	BLOQ	CCCCCCCCC(=O)OCC(COC(=O)CCCCCCCC)OC(=O)CCCN(CCCC(=O)OC(COC(=O)CCCCCCCC)COC(=O)CCCCCCCC)C(=O)SCCCN(C)C [LIPID 1, ((4,4′-((((3-(Dimethylamino)propyl)thio)carbonyl)azanediyl)bis(butanoyl))bis(oxy))bis(propane-2,1,3-triyl) tetranonanoate]
15	15	BLOQ	BLOQ	BLOQ	BLOQ	CCCCCCCCC(=O)OCC(COC(=O)CCCCCCCC)OC(=O)CCCC(CCCC(=O)OC(COC(=O)CCCCCCCC)COC(=O)CCCCCCCC)OC(=O)CCCN(C)C.Cl [LIPID 3, bis(1,3-bis(Nonanoyloxy)propan-2-yl) 5-((4-(dimethylamino)butanoyl)oxy)nonanedioate HCl Salt]
13	13	BLOQ	BLOQ	BLOQ	BLOQ	CCCCCCCC(=O)OCC(COC(=O)CCCCCCC)OC(=O)CCCC(CCCC(=O)OC(COC(=O)CCCCCCC)COC(=O)CCCCCCC)SC(=O)CCCN(C)C [LIPID 4, bis(1,3-bis(Octanoyloxy)propan-2-yl) 5-((4-(dimethylamino)butanoyl)thio)nonanedioate]
40	40	BLOQ	BLOQ	BLOQ	BLOQ	CCCCCCCCC(=O)OCC(COC(=O)CCCCCCCC)OC(=O)CCC(CCC(=O)OC(COC(=O)CCCCCCCC)COC(=O)CCCCCCCC)OC(=O)CCCN(C)C [LIPID 5, bis(1,3-bis(Nonanoyloxy)propan-2-yl) 4-((4-(dimethylamino)butanoyl)oxy)heptanedioate]
81	81	BLOQ	BLOQ	BLOQ	BLOQ	CCCCCCCCC(=O)OCC(COC(=O)CCCCCCCC)OC(=O)CN(CC(=O)OC(COC(=O)CCCCCCCC)COC(=O)CCCCCCCC)C(=O)SCCCN(C)C [LIPID 8, ((2,2′-((((3-(Dimethylamino)propyl)thio)carbonyl)azanediyl)bis(acetyl))bis(oxy))bis(propane-2,1,3-triyl) tetranonanoate]
36	36	BLOQ	BLOQ	BLOQ	BLOQ	CN(C)CCCSC(=O)N(CCCC(=O)OC(COC(=O)CCC1CCCCC1)COC(=O)CCC1CCCCC1)CCCC(=O)OC(COC(=O)CCC1CCCCC1)COC(=O)CCC1CCCCC1 [LIPID 10, ((4,4′-((((3-(Dimethylamino)propyl)thio)carbonyl)azanediyl)bis(butanoyl))bis(oxy))bis(propane-2,1,3-triyl) tetrakis(3-cyclohexylpropanoate)]
40	40	BLOQ	BLOQ	BLOQ	BLOQ	CN(C)CCCSC(=O)N(CCCC(=O)OC(COC(=O)CCCC1CCCCC1)COC(=O)CCCC1CCCCC1)CCCC(=O)OC(COC(=O)CCCC1CCCCC1)COC(=O)CCCC1CCCCC1 [LIPID 11, ((4,4′-((((3-(Dimethylamino)propyl)thio)carbonyl)azanediyl)bis(butanoyl))bis(oxy))bis(propane-2,1,3-triyl) tetrakis(4-cyclohexylbutanoate)]
57	57	BLOQ	BLOQ	BLOQ	BLOQ	CN(C)CCCSC(=O)N(CCCCCC(=O)OC(COC(=O)CCC1CCCCC1)COC(=O)CCC1CCCCC1)CCCCCC(=O)OC(COC(=O)CCC1CCCCC1)COC(=O)CCC1CCCCC1 [LIPID 12, ((6,6′-((((3 (dimethylamino)propyl)thio)carbonyl)azanediyl)bis(hexanoyl))bis(oxy))bis(propane-2,1,3-triyl) tetrakis(3-cyclohexylpropanoate)]
74	74	<340 ng/tissue	<340 ng tissue	<340 ng/tissue	<340 ng/tissue	CCCCCCCCC(=O)OCC(COC(=O)CCCCCCCC)OC(=O)CCN(CCC(=O)OC(COC(=O)CCCCCCCC)COC(=O)CCCCCCCC)C(=O)SCCCN(C)C [LIPID 13]
116	100	<340 ng/tissue	<340 ng tissue	<340 ng/tissue	<340 ng/tissue	CCCCCCCCC(=O)OCC(COC(=O)CCCCCCCC)COC(=O)CCN(CCC(=O)OCC(COC(=O)CCCCCCCC)COC(=O)CCCCCCCC)C(=O)SCCCN(C)C [LIPID 14]
256	100	<340 ng/tissue	<340 ng tissue	<340 ng/tissue	<340 ng/tissue	CC1CCC(CC(=O)OCC(COC(=O)CC2CCC(C)CC2)OC(=O)CCCN(CCCC(=O)OC(COC(=O)CC2CCC(C)CC2)COC(=O)CC2CCC(C)CC2)C(=O)SCCCN(C)C)CC1 (centres unmarked) [LIPID 15, ((4,4′-((((3-(dimethylamino)propyl)thio)carbonyl)-azanediyl)bis(butanoyl))bis(oxy))bis(propane-2,1,3-triyl) tetrakis(2-(4-methylcyclohexyl)acetate)]
100	100	<340 ng/tissue	639 ng tissue	<340 ng/tissue	639 ng/tissue	CCCCCCC(C)C(=O)OCC(COC(=O)C(C)CCCCCC)OC(=O)CCCN(CCCC(=O)OC(COC(=O)C(C)CCCCCC)COC(=O)C(C)CCCCCC)C(=O)SCCCN(C)C (centres unmarked) [LIPID 18, ((4,4′-((((3-(Dimethylamino)propyl)thio)carbonyl)-azanediyl)bis(butanoyl))bis(oxy))bis(propane-2,1,3-triyl) tetrakis(2-methyloctanoate)]
–	100	<340 ng/tissue	847 ng tissue	<340 ng/tissue	847 ng/tissue	CCCCCC(C)(C)C(=O)OCC(COC(=O)C(C)(C)CCCCC)OC(=O)CCCN(CCCC(=O)OC(COC(=O)C(C)(C)CCCCC)COC(=O)C(C)(C)CCCCC)C(=O)SCCCN(C)C [LIPID 19, ((4,4′-((((3-(Dimethylamino)propyl)thio)carbonyl)-azanediyl)bis(butanoyl))bis(oxy))bis(propane-2,1,3-triyl) tetrakis(2,2-dimethylheptanoate)]
–	100	–	–	<340 ng/tissue	<340 ng/tissue	CC1CCC(CCC(=O)OCC(C)(COC(=O)CCC2CCC(C)CC2)COC(=O)CCN(CCC(=O)OCC(C)(COC(=O)CCC2CCC(C)CC2)COC(=O)CCC2CCC(C)CC2)C(=O)SCCCN(C)C)CC1 (centres unmarked) [LIPID 20]
–	100	–	–	<340 ng/tissue	<340 ng/tissue	CC1CCC(CC(=O)OCC(C)(COC(=O)CCN(CCC(=O)OCC(C)(COC(=O)CC2CCC(C)CC2)COC(=O)CC2CCC(C)CC2)C(=O)SCCCN(C)C)COC(=O)CC2CCC(C)CC2)CC1 (centres unmarked) [LIPID 21]
